From PubChem BioAssay AID1421 (Emory University Molecular Libraries Screening Center, 2008)
Activity calls are given as the source filed them. How the calls were made is not given here.

molecular target: Prostaglandin E2 receptor EP2 subtype (Homo sapiens) (UniProt P43116); experiment: EP2 receptor modulators, dose response, cell-based, human EP2, PGE2 EC50 shift (AID 1421); conditions: EP2-expressing cells, PGE2 EC50 shift by compound
Sequence (P43116 whole entry, looked up): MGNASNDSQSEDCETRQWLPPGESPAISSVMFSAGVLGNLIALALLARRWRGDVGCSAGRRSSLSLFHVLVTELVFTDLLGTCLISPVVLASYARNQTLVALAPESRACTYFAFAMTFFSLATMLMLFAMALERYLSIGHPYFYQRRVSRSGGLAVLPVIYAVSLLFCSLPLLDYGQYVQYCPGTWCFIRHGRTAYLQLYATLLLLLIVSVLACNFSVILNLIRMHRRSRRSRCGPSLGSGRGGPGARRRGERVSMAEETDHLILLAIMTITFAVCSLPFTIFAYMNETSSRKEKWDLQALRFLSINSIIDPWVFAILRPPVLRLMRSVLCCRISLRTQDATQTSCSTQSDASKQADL

outcome | Compound
active | O=C(Nc1cc(C(F)(F)F)ccc1-n1cncn1)c1ccc(-c2ccccc2)cc1
active | CCOC(=O)c1cc(CC)sc1NC(=O)c1cc(OC)c(OC)c(OC)c1
active | Cc1cccc(C)c1OC(=O)C(c1ccccc1)c1ccccc1
active | CCc1ccccc1NC1c2ccccc2C(=O)N1c1cc(C)ccn1 (stereo unspecified)

Continued, molecule first:

Compound | outcome
CCc1ccccc1NC(=O)/C(=C/c1ccccc1)c1ccccc1 | active
Cc1sc(NC(=O)c2ccccc2F)c(CN2CCCCC2)c1C | active
Cc1noc(C)c1CSc1ncnc2sc3c(c12)CCC3 | active
CCOC(=O)c1cc(C)sc1NC(=O)c1ccc(Cl)s1 | active

same assay, conditions: EP2-expressing cells, PGE2 EC50 shift by compound; measured here: PGE2 EC50 at 6.7 uM compound

PGE2 EC50 with compound | Compound
0.9 nM | CCOC(=O)n1c(=O)n(Cc2ccc(Cl)c(Cl)c2)c2ccccc21
1.27 nM | Cc1noc(C)c1COC(=O)C(c1ccccc1)c1ccccc1
1.19 nM | CCOC(=O)C1=C(CC)Nc2ccccc2N=C1NC(=O)c1oc2ccccc2c1C
0.96 nM | CCOC(=O)c1ccccc1NC(=O)CSc1ncc(C(=O)OCC)c(N)n1
0.34 nM | c1ccc2c(-c3nc(C4CCCCC4)no3)cc(-c3ccncc3)nc2c1
1.33 nM | COc1cccc(-c2nc(N3CC(C)CC(C)C3)c3ccccc3n2)c1O (stereo unspecified)
2.82 nM | c1ccc(-c2ccccc2-c2nc(-c3cccnc3)no2)cc1
0.93 nM | COc1ccc(C2=Nn3c(nnc3-c3ccccc3OC)SC2)cc1OC
1.68 nM | Cc1ccccc1NC(=S)N(Cc1ccco1)C(C)c1cccs1 (stereo unspecified)
1.87 nM | Cc1ccc(-c2cc3nn(-c4ccccc4)c(N)c3c(=O)o2)cc1
0.91 nM | CCn1c(=NC(=O)c2ccc(S(=O)(=O)N3CCOCC3)cc2)sc2cccc(OC)c21
0.89 nM | CCOC(=O)C1CCN(c2c(C(=O)c3ccccc3)cnc3ccc(Cl)cc23)CC1
0.57 nM | C=CCc1cc(C=O)cc(OC)c1OCc1ccc(Cl)cc1
1 nM | Cc1oncc1-c1csc(-c2ccccc2Cl)n1
2.76 nM | Cc1ccccc1Cn1c(Cc2ccccc2)nc2ccccc21
0.88 nM | CCCC(=O)O[C@H]1C[C@@H](C)N(C(=O)c2ccccc2)c2ccc(C)cc21
0.49 nM | CCOCC(=O)Nc1cc(C(F)(F)F)ccc1Oc1cccc(Br)c1
0.95 nM | Cc1ccc2c(c1)N(Cc1cccc(Cl)c1)C(=O)c1cccnc1O2
1.33 nM | COc1ccc(OC)c(C(=O)CSc2nnc(Cc3cccs3)n2CCc2ccccc2)c1
0.84 nM | C=CCOc1ccccc1CNc1cccc(F)c1
1.15 nM | O=C(Nc1cc(C(F)(F)F)ccc1-n1cncn1)c1ccc(-c2ccccc2)cc1

PGE2 EC50 with compound | Compound
1.51 nM | CCc1nc(SCC(=O)Nc2nc3c(s2)CCCC3)c2ccccc2n1
1.31 nM | Cc1cccc(OCc2n[nH]c(=S)n2Cc2ccccc2)c1
0.92 nM | CCCCOc1ccccc1Cn1c(=O)oc2ccc(C)cc21
1.25 nM | CCOC(=O)c1sc2nccc(N(C)C)c2c1N=CNOCc1ccccc1
0.94 nM | Fc1ccc(Sc2nc(-c3ccccc3)nnc2C(F)(F)F)cc1
1 nM | CC1CCN(c2nc(-c3ccncc3)nc3ccccc23)CC1
2.71 nM | Cc1occc1-c1nnc(SCC(=O)Nc2ccccc2N2CCCCC2)n1C
0.55 nM | COc1ccccc1NC(=O)CSc1nnc(Cn2nnc(-c3ccccc3)n2)n1-c1ccccc1
1.03 nM | CC(C)(C)n1nnnc1C(c1ccncc1)N(Cc1ccccc1)Cc1ccco1 (stereo unspecified)
1.36 nM | FC(F)(F)c1cccc(-c2cc3ccccc3nc2N2CCCC2)c1
1.44 nM | COc1cccc(C2=NN(C(=O)c3cccs3)C(O)(C(F)(F)F)C2)c1 (stereo unspecified)
1.01 nM | Cc1cccc(C)c1OCc1nnc(SCC(=O)Nc2nccs2)n1-c1ccccc1
0.83 nM | COC(=O)c1cc2ccsc2n1Cc1ccccc1F
1.09 nM | Cc1noc(C)c1CSc1nc2ccccc2c(=O)n1-c1ccc(F)cc1F
1.29 nM | COc1ccc(Nc2nc(-c3cc4cccc(OC)c4oc3=O)cs2)cc1
0.82 nM | CCOC(=O)c1cc(CC)sc1NC(=O)c1cc(OC)c(OC)c(OC)c1
2.47 nM | Cc1cccc(C)c1OC(=O)C(c1ccccc1)c1ccccc1
2.49 nM | CCc1ccccc1NC1c2ccccc2C(=O)N1c1cc(C)ccn1 (stereo unspecified)
1.23 nM | CC1=C(C(=O)OCc2ccccc2)C(c2ccc(Cl)cc2Cl)NC(=O)N1CCCCCC(=O)O (stereo unspecified)
2.43 nM | S=c1[nH]nc(-c2ccccc2)n1/N=C/c1ccc(-c2ccccc2Cl)o1
0.74 nM | COc1ccc2c(-c3ccccc3)cc(N3CCOCC3)nc2c1

The next lines start with the molecule.

Compound | PGE2 EC50 with compound
CCC(C)(C)c1ccc(OCC(=O)N(C)C)c(C(C)(C)CC)c1 | 5.61 nM
CCCCc1nc(SCCOC)c2c(=O)n(C)c(=O)n(C)c2n1 | 1.42 nM
CCc1nc(N2CCC(C)CC2)c2oc3ccccc3c2n1 | 1.23 nM
O=C(c1ccccc1)C1CN(Cc2ccccc2)CCC1(O)c1ccccc1 (stereo unspecified) | 2.61 nM
O=C(OCc1ccccc1Cl)c1ccccc1C(=O)c1ccccc1 | 1.13 nM
Cc1ccc(N(CC(=O)N/N=C/c2ccc(OC3CSC3)cc2)S(=O)(=O)c2ccccc2)cc1 | 1.01 nM
C=CCSc1nc(N(CC)CC)c2sccc2n1 | 0.98 nM
CCOC(=O)c1c(NC(=O)Cc2cccs2)sc(C)c1C | 0.87 nM
NC(=O)COc1ccc(C23CC4CC(CC(C4)C2)C3)cc1 | 2.56 nM
O=C(Nc1ccccc1)/C(=C/c1ccccc1)c1ccccc1 | 2.56 nM
CCOC(=O)c1c(NC(=O)CSC(=S)N(C)C)sc(C)c1C | 0.86 nM
C=CCC1(C)C(=O)N(c2ccccc2)c2ccccc21 (stereo unspecified) | 2.93 nM
Nc1c(C(=O)NCc2ccco2)c2nc3ccccc3nc2n1CCc1ccccc1 | 1.78 nM
CCOc1cccc(CNc2ccc(O)cc2)c1OCc1ccc(Cl)cc1 | 1.41 nM
CCc1ccccc1NC(=O)/C(=C/c1ccccc1)c1ccccc1 | 1.14 nM
O=C(c1ccc(Cl)cc1)c1oc2ccccc2c1CS(=O)c1ccccc1 (stereo unspecified) | 0.87 nM

Compound | PGE2 EC50 with compound
Cc1sc(NC(=O)c2ccccc2F)c(CN2CCCCC2)c1C | 1.09 nM
CCOC(=O)CC(=O)CSc1nc(-c2ccc3c(c2)OCO3)cc(C(F)(F)F)c1C#N | 1.24 nM
CCN1C(c2ccccc2)C(C)C(=O)C(C)C1c1ccccc1 (stereo unspecified) | 0.85 nM
Cc1noc(C)c1CSc1ncnc2sc3c(c12)CCC3 | 0.87 nM
Cc1cc(C(=O)Nc2cccc(/C=C/C(=O)O)c2)c(C)o1 | 0.36 nM
CCOC(=O)c1cc(C)sc1NC(=O)c1ccc(Cl)s1 | 0.73 nM
Cc1cc(C)c(S(=O)(=O)N(C2=NCCS2)S(=O)(=O)c2c(C)cc(C)cc2C)c(C)c1 | 0.99 nM
O=c1c(C=NCc2ccccc2)c(NCc2ccccc2)nc2ccccn12 | 0.96 nM
CCOC(=O)c1c(NC(=O)c2ccc(N3C(=O)[C@@H]4[C@H](C3=O)[C@H]3C=C[C@@H]4C3)cc2)sc2c1CC(C)CC2 (stereo partly specified) | 1.22 nM
Cn1c(=O)c2c(SCc3cccnc3)nc(CC(C)(C)C)nc2n(C)c1=O | 2.57 nM
O=S(=O)(c1cccc(C(F)(F)F)c1)N1c2ccccc2-n2cccc2[C@H]1c1cccnc1 | 1.09 nM
Cc1ccc(OCC(=O)NNC(=O)C2CCN(c3ncccn3)CC2)cc1 | 0.81 nM
COC(=O)c1c(NC(=O)c2cccs2)sc2c1CCC(C)C2 (stereo unspecified) | 0.96 nM
CC(=O)O[C@H]1C[C@@H](OC(C)=O)C(C)(C)C2C[C@@H](OC(C)=O)[C@]3(C)C([C@H](OC(C)=O)C[C@@]4(C)[C@H](c5ccoc5)OC(=O)[C@H]5O[C@]543)[C@]21C (stereo partly specified) | 1.05 nM
COC(=O)c1c(NC(=O)Cc2cccs2)sc(C)c1C | 0.88 nM
